Data published in the supplement of paper PMC10307832.

Experiments:
Test in all cases: relative viability (nuclei count vs DMSO), 5 days (fraction); higher = more cells survive
[1] = compound: COc1cc(N2CCC(N3CCN(C)CC3)CC2)ccc1Nc1ncc(Cl)c(Nc2ccccc2S(=O)(=O)C(C)C)n1 [NVP-TAE684] + Nc1nc2[nH]cc(CCc3ccc(C(=O)N[C@@H](CCC(=O)O)C(=O)O)cc3)c2c(=O)[nH]1 [Pemetrexed] (partner 0.2 µM)
Procedure, shortened: (§1)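 Relative viability divides the nuclei count in treated wells by that in vehicle wells. Lung cancer cell lines were seeded in 1536-well plates, dosed by pin tool the next day, and fixed and stained after 5 days in one step with final 0.05% Triton X-100, 1% formaldehyde and 1 ug/ml Hoechst. Dosing was a single drug or a fixed anchor-drug dose plus five library-drug doses (not always all listed) in √10 steps, and values are medians of duplicate plates imaged at 4×.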

[2] = compound: C#Cc1cccc(Nc2ncnc3cc(OC)c(OCCCCCCC(=O)NO)cc23)c1 [CUDC-101] + COc1cc2c(Oc3ccc(NC(=O)C4(C(=O)Nc5ccc(F)cc5)CC4)cc3F)ccnc2cc1OCCCN1CCOCC1 [Foretinib] (partner 0.25 µM)
Procedure, shortened: as §1

[3] = compound: COc1cc2/c(=N/c3ccc(Br)cc3F)nc[nH]c2cc1OCC1CCN(C)CC1 [Vandetanib]
Procedure, shortened: (§2)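 Viability was defined as treated-well nuclei divided by vehicle-well nuclei, with the median taken over replicate plates. Cells from lung cancer lines sat overnight at 37 °C in 1536-well plates, received five √10-spaced library-drug doses by pinning on vehicle-anchored plates, and grew 5 days without medium change before one-step fixation, permeabilisation and Hoechst staining, 4× imaging and MetaXpress nuclear counts. Only plates with control CV under 25% and at least one doubling were kept.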

[4] = compound: C1=CC=C2C(=C1)N=C(S2)C(C#N)C3=NC(=NC=C3)NCCC4=CN=CC=C4
Procedure, shortened: as §2

| Cell Line | relative viability ([1]; first compound 0.2 µM) | relative viability ([1]; first compound 0.6325 µM) | relative viability ([1]; first compound 2 µM) | relative viability ([2]; first compound 0.01 µM) | relative viability ([2]; first compound 0.03162 µM) | relative viability ([2]; first compound 0.1 µM) | relative viability ([2]; first compound 0.3162 µM) | relative viability ([2]; first compound 1 µM) | relative viability ([3]; 0.02 µM) | relative viability ([3]; 0.06325 µM) | relative viability ([3]; 0.2 µM) | relative viability ([3]; 0.6325 µM) | relative viability ([3]; 2 µM) | relative viability ([4]; 0.005 µM) | relative viability ([4]; 0.01581 µM) | relative viability ([4]; 0.05 µM) | relative viability ([4]; 0.1581 µM) | relative viability ([4]; 0.5 µM) |
| --- | --- | --- | --- | --- | --- | --- | --- | --- | --- | --- | --- | --- | --- | --- | --- | --- | --- | --- |
| HCC-366 | 0.197 | 0.178 | 0.227 | 0.939 | 0.93 | 0.95 | 0.847 | 0.882 | 0.966 | 1.01 | 1.03 | 1.01 | 1.02 | 0.883 | 1.06 | 0.995 | 1.05 | 1.05 |
| HCC-827 | 0.259 | 0.262 | 0.261 | 1 | 0.436 | 0.203 | 0.153 | 0.167 | 1.04 | 1.02 | 1.01 | 0.31 | 0.186 | 1.07 | 1.1 | 1.01 | 1.11 | 1.05 |
| HOP-62 | 0.34 | 0.392 | 0.345 | 1.08 | 1.08 | 1.1 | 1.14 | 0.713 | 0.947 | 1.02 | 1.01 | 1.02 | 1.04 | 0.951 | 1.08 | 1.01 | 1.24 | 1.07 |
| IA-LM | – | – | – | 1.27 | 1.1 | 1.12 | 1.11 | 0.657 | 0.996 | 0.895 | 0.946 | 1.09 | 1.15 | 0.834 | 1.19 | 0.997 | 1.02 | 0.762 |
| LC-2-ad | 0.241 | 0.269 | 0.232 | 0.863 | 0.947 | 0.904 | 0.899 | 0.52 | 1.02 | 0.893 | 1.01 | 0.868 | 0.438 | 0.923 | 0.9 | 0.999 | 1.11 | 0.961 |
| LCLC-97TM1 | 0.184 | 0.144 | 0.114 | 0.844 | 0.824 | 0.962 | 0.829 | 0.666 | 1.05 | 0.939 | 1.01 | 1.05 | 0.832 | 0.944 | 0.991 | 0.974 | 1.13 | 1.08 |
| LCLC-103H | 0.473 | 0.48 | 0.478 | 0.753 | 0.854 | 0.808 | 0.751 | 0.513 | 0.959 | 0.92 | 1.05 | 0.899 | 0.931 | 0.928 | 0.952 | 0.955 | 1.07 | 0.947 |
| LK-2 | 0.271 | 0.229 | 0.175 | 1.23 | 1.19 | 0.957 | 0.819 | 0.554 | 0.97 | 0.969 | 0.966 | 1.06 | 0.815 | 0.753 | 1.11 | 0.97 | 1.21 | 1.07 |
| LOU-NH91 | 0.364 | 0.349 | 0.437 | 0.862 | 0.634 | 0.552 | 0.589 | 0.584 | 0.986 | 0.869 | 0.825 | 0.823 | 0.859 | 0.954 | 0.875 | 0.815 | 1.02 | 0.916 |
